pIC50: −log10 of the molar value.
The compounds below were run against Translocator protein (Rattus norvegicus, UniProt P16257) (assay: Inhibitory activity against specific binding of [3H]-CB 34 to peripheral benzodiazepine receptor in rat cortical membranes was evaluated).
Chain of Translocator protein (P16257 whole entry, looked up): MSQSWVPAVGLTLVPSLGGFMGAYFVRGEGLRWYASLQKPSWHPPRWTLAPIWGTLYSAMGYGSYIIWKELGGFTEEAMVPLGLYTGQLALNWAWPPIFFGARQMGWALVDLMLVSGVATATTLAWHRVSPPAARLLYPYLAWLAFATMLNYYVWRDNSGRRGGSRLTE
Assay type: cell membranes, Membrane
For `O=C(NCc1ccccc1)c1cc(-c2ccccc2)c2ccccc2c1`, the pIC50 was 5.57.
Compound `C#CCN(C)C(=O)c1nc2ccccc2c(-c2ccccc2)c1C` has a pIC50 of 7.49.
`CCN(Cc1ccccc1)Cc1c(C(=O)N(C)Cc2ccccc2)nc2ccccc2c1-c1ccccc1` gave a pIC50 of 7.89.
With `O=C(NCc1ccccc1)c1cc(-c2ccccc2)c2ccccc2n1` the pIC50 was 4.94.
`CN(Cc1ccccc1)C(=O)c1nc2ccccc2c(-c2ccccc2)c1CO` gave a pIC50 of 8.06.
`Cc1c(C(=O)N(Cc2ccccc2)Cc2ccccc2)nc2ccccc2c1-c1ccccc1` was tested, and the pIC50 was 7.96.
Compound `Cc1c(C(=O)N(C)Cc2ccccc2)cc2ccccc2c1-c1ccccc1` has a pIC50 of 8.01.
`Cc1c(C(=O)NCc2ccccc2)nc2ccccc2c1-c1ccccc1F` gave a pIC50 of 5.83.
With `Cc1c(C(=O)N(C)Cc2ccccc2)nc2ccccc2c1-c1ccccc1` the pIC50 was 8.34.
Work on `CN(Cc1ccccc1)C(=O)c1cc(-c2ccccc2)c2ccccc2c1` yielded a pIC50 of 7.19.
`Cc1c(C(=O)N(C)Cc2ccccc2)nc2ccccc2c1-c1ccccc1F` showed a pIC50 of 8.66.
Compound `CCN(CC)Cc1c(C(=O)N(C)Cc2ccccc2)nc2ccccc2c1-c1ccccc1` has a pIC50 of 7.92.
Compound `CN(Cc1ccccc1)C(=O)c1cc(-c2ccccc2)c2ccccc2n1` has a pIC50 of 7.42.
In the case of `Cc1c(C(=O)NCc2ccccc2)cc2ccccc2c1-c1ccccc1`, the pIC50 was 5.18.
For `CN(Cc1ccccc1)C(=O)c1nc2ccccc2c(-c2ccccc2)c1CCl`, the pIC50 was 9.35.
With `Cc1c(C(=O)NCc2ccccc2)nc2ccccc2c1-c1ccccc1` the pIC50 was 4.99.

From ChEMBL document CHEMBL1145046, “Structure-activity relationships in carboxamide derivatives based on the targeted delivery of radionuclides and boron atoms by means of peripheral benzodiazepine receptor ligands” (J Med Chem, 2003)
